Measurements taken from patent publication US8470810B2, “Heterocyclic compounds suitable for treating disorders that respond to modulation of the dopamine D3 receptor” (Abbott GmbH & Co. KG, priority 2004, dated 2013).
pKi: −log10 of the molar value. Where a name gives a salt, the structure may show the parent alone.

Assays:
[1] = target: T1, human dopamine D3 receptors (Homo sapiens, UniProt P35462); assay: Dopamine D3 receptor binding, displacement of [125I]-iodosulpride; conditions: for pKi: membranes of HEK-293 cells stably expressing human D3, 0.1 nM [125I]-iodosulpride, 25° C., 60 minutes; for Ki(D2)*/Ki(D3)*: selectivity ratio of the receptor binding constants D2 over D3
T1 construct: expressed in transfected cells
Protocol: (§1) The substance to be tested was either dissolved in methanol/Chremophor® (BASFAG) or in dimethyl sulfoxide and then diluted with water to the desired concentration.
(§2) Each assay mixture was run in triplicate.
The incubation buffer contained 50 mM tris, 120 mM NaCl, 5 mM KCl, 2 mM CaCl2, 2 mM MgCl2 and 0.1% bovine serum albumin, 10 μM quinolone and 0.1% ascorbic acid (prepared fresh daily). The buffer was adjusted to pH 7.4 with HCl.
(§3) After having been incubated at 25° C. for 60 minutes, the assay mixtures were filtered through a Whatman GF/B glass fiber filter under vacuum using a cell collecting device. The filters were transferred to scintillation viols using a filter transfer system. After 4 ml of Ultima Gold® (Packard) have been added, the samples were shaken for one hour and the radioactivity was then counted in a Beta-Counter (Packard, Tricarb 2000 or 2200CA). The cpm values were converted into dpm using a standard quench series and the program belonging to the instrument.
(§4) The inhibition curves were analyzed by means of iterative nonlinear regression analysis using the Statistical Analysis System (SAS) which is similar to the “LIGAND” program described by Munson and Rodbard.
(§5) The results of the receptro binding studies are expressed as receptor binding constants Ki(D2) and Ki(D3), respectively, as herein before described, and given in table 6.

[2] = target: T2, human dopamine D2L receptors (long isoform) (Homo sapiens, UniProt P14416); assay: Dopamine D2L receptor binding, displacement of [125I] iodospiperone; conditions: membranes of HEK-293 cells stably expressing human D2L; 0.01 nM [125I] iodospiperone; 25° C., 60 minutes; read-out: Ki(D2)*
T2 construct: expressed in transfected cells
Protocol: as §1, §2
The incubation buffer contained 50 mM tris, 120 mM NaCl, 5 mM KCl, 2 mM CaCl2, 2 mM MgCl2 and 0.1% bovine serum albumin. The buffer was adjusted to pH 7.4 with HCl.
as §3, §4, §5

T2 sequence (P14416 whole entry, canonical isoform): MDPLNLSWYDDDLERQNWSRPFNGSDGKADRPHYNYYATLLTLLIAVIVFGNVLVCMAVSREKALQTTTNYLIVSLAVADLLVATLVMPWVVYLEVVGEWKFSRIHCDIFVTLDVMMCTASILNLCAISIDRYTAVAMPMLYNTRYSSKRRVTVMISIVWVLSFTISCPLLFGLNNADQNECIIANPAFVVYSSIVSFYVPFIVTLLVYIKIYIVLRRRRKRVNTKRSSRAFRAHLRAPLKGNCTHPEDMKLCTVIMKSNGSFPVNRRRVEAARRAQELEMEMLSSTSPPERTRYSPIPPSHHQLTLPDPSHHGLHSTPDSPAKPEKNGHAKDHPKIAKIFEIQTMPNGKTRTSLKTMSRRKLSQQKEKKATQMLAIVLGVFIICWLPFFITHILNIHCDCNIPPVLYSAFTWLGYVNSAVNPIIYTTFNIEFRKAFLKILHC
T1 sequence (P35462 whole entry): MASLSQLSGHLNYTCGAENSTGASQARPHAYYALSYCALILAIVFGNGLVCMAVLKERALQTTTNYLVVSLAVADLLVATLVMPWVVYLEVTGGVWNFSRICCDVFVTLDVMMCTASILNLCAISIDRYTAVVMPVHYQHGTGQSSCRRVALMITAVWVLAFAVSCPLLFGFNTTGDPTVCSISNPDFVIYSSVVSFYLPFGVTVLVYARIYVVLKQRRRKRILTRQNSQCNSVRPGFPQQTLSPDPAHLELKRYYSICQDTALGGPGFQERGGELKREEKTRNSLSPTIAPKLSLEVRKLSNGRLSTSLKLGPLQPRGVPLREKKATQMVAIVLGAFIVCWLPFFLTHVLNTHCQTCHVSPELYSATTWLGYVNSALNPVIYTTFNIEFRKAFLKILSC

SMILES	pKi [1]	Ki(D2)*/Ki(D3)* [1]	pKi [2]
CCCN1CC[C@@H](c2ccc(NS(=O)(=O)c3ccc(C(C)=O)cc3)cc2)C1 [Example 26, 4-Acetyl-N-[4-((S)-1-propyl-pyrrolidin-3-yl)-phenyl]-benzenesulfonamide]	7.55	46	5.89
CCCN1CC[C@@H](c2ccc(NS(=O)(=O)c3ccc(C4CC4)cc3)cc2)C1 [Example 27, 4-Cyclopropyl-N-[4-((S)-1-propyl-pyrrolidin-3-yl)-phenyl]-benzenesulfonamide]	9.64	30	8.15
CCCN1CC[C@@H](c2ccc(NS(=O)(=O)c3ccc(Br)s3)cc2)C1.Cl [Example 28, 5-Bromo-thiophene-2-sulfonic acid [4-((S)-1-propyl-pyrrolidin-3-yl)-phenyl]-amide hydrochloride]	8.48	41	6.88
C=C(C)c1ccc(S(=O)(=O)Nc2ccc([C@@H]3CCN(CCC)C3)cc2)s1 [Example 29, 5-Isopropenyl-thiophene-2-sulfonic acid [4-((S)-1-propyl-pyrrolidin-3-yl)-phenyl]-amide]	9.17	41	7.56
CCCc1ccc(S(=O)(=O)Nc2ccc([C@@H]3CCN(CCC)C3)cc2)cc1.Cl [Example 30, 4-Propyl-N-[4-((S)-1-propyl-pyrrolidin-3-yl)-phenyl]-benzenesulfonamide hydrochloride]	9.55	42	7.93
CCCN1CCC(c2ccc(NS(=O)(=O)c3ccc(C(C)C)cc3)cn2)C1 (centres unmarked) [Example 31, N-[6-(1-propyl-pyrrolidin-3-yl)-pyridin-3-yl]-4-isopropyl-benzene-sulfonamide]	7.97	24	6.59
CCCN1CC[C@@H](c2ccc(NS(=O)(=O)c3ccc(C(C)CC)cc3)cc2)C1.Cl (stereo partly drawn) [Example 33, 4-sec-Butyl-N-[4-((S)-1-propyl-pyrrolidin-3-yl)-phenyl]-benzenesulfonamide hydrochloride]	9.77	33	8.26
CCCN1CC[C@@H](c2ccc(NS(=O)(=O)c3cc(F)c(Br)cc3F)cc2)C1 [Example 34]	8.29	34	6.76
CCCN1CC[C@@H](c2ccc(NS(=O)(=O)c3ccc(CC(C)C)cc3)cc2)C1.Cl [Example 35, 4-Isobutyl-N-[4-((S)-1-propyl-pyrrolidin-3-yl)-phenyl]-benzenesulfonamide hydrochloride]	9.52	24	8.13
CCCN1CC[C@@H](c2ccc(NS(=O)(=O)c3ccc(C4CCCC4)cc3)cc2)C1 [Example 37, 4-Cyclopentyl-N-[4-(S)-1-propyl-pyrrolidin-3-yl)-phenyl]-benzenesulfonamide hydrochloride]	9.82	22	8.49
CC(C)c1ccc(S(=O)(=O)Nc2ccc([C@@H]3CCN(CCCF)C3)cc2)cc1 [Example 38, 4-Isopropyl-N-[4-((S)-1-(3-fluoro-propyl)-pyrrolidin-3-yl)-phenyl]-benzenesulfonamide]	9.54	21	8.20
CCCCOc1ccc(S(=O)(=O)Nc2ccc([C@@H]3CCN(CCC)C3)cc2)cc1 [Example 40, 4-Butyloxy-N-[4-((S)-1-propyl-pyrrolidin-3-yl)-phenyl]-benzenesulfonamide]	9.34	40	7.74
CCCN1CC[C@@H](c2ccc(NS(=O)(=O)c3ccc(C4CC4(F)F)cc3)cc2)C1 (stereo partly drawn) [Example 41, 4-(2,2-Difluorocyclopropyl)-N-[4-((S)-1-propyl-pyrrolidin-3-yl)-phenyl]-benzenesulfonamide]	9.36	30	7.87
CCCN1CC(c2ccc(NS(=O)(=O)c3ccc(C(C)C)cc3)cn2)C1 [Example 46, 4-Isopropyl-N-[6-(1-propyl-azetidin-3-yl)-pyridin-3-yl]-benzenesulfonamide]	7.31	37	5.74
CCCN1CC(c2ccc(NS(=O)(=O)c3ccc(C(C)C)cc3)cc2)C1 [Example 48, 4-Isopropyl-N-[4-(1-propyl-azetidin-3-yl)-phenyl]-benzene sulfonamide]	8.68	65	6.86
CCCN1CC(c2ccc(NS(=O)(=O)c3ccc(OC(F)(F)F)cc3)cc2)C1 [Example 49, N-[4-(1-Propyl-azetidin-3-yl)-phenyl]-4-trifluoromethoxybenzene sulfonamide]	7.34	39	5.74
CC(C)c1ccc(S(=O)(=O)Nc2ccc([C@@H]3CCN(CCCO)C3)cc2)cc1 [Example 53, N-{4-[(S)-1-(3-Hydroxy-propyl)-pyrrolidin-3-yl]-phenyl}-4-isopropyl-benzenesulfonamide]	9.39	14	8.23
CCCN1CC[C@@H](c2ccc(NS(=O)(=O)c3ccc(C4CCC4)cc3)cc2)C1 [Example 54, 4-Cyclobutyl-N-[4-((S)-1-propyl-pyrrolidin-3-yl)-phenyl]-benzenesulfonamide]	9.49	27	8.06
CCCN1CC(c2ccc(NS(=O)(=O)c3ccc(-c4cnco4)cc3)cc2)C1 [Example 55, 4-Oxazol-5-yl-N-[4-(1-propyl-azetidin-3-yl)-phenyl]-benzenesulfonamide]	8.15	165	5.93
CCCN1CC(c2ccc(NS(=O)(=O)c3ccc(CCF)cc3)cc2)C1 [Example 56, 4-(2-Fluoro-ethyl)-N-[4-(1-propyl-azetidin-3-yl)-phenyl]-benzenesulfonamide]	7.61	109	5.57
CCCN1CC(c2ccc(NS(=O)(=O)c3ccc(CCCF)cc3)cc2)C1 [Example 57, 4-(3-Fluoro-propyl)-N-[4-(1-propyl-azetidin-3-yl)-phenyl]-benzenesulfonamide]	8.14	123	6.06
CCCN1CC(c2ccc(NS(=O)(=O)c3ccc(Br)cc3)cc2)C1 [Example 58, 4-Bromo-N-[4-(1-propyl-azetidin-3-yl)-phenyl]-benzenesulfonamide]	7.40		5.53
CCCN1CC(c2ccc(NS(=O)(=O)c3ccc([C@@H](C)CF)cc3)cc2)C1 [Example 59, 4-((R)-2-Fluoro-1-methyl-ethyl)-N-[4-(1-propyl-azetidin-3-yl)-phenyl]-benzenesulfonamide]	8.19	238	5.82
CCCN1CC(c2ccc(NS(=O)(=O)c3ccc([C@H](C)CF)cc3)cc2)C1 [Example 60, 4-((S)-2-Fluoro-1-methyl-ethyl)-N-[4-(1-propyl-azetidin-3-yl)-phenyl]-benzenesulfonamide]	8.12	1019	5.11
CCCN1CC(c2ccc(NS(=O)(=O)c3ccc(CC(F)(F)F)cc3)cc2)C1 [Example 62, N-[4-(1-Propyl-azetidin-3-yl)-phenyl]-4-(2,2,2-trifluoro-ethyl)-benzenesulfonamide]	7.60	141	5.45
CCCN1CC(c2ccc(NS(=O)(=O)c3ccc(C(C)C(F)(F)F)cc3)cc2)C1 (centres unmarked) [Example 63, N-[4-(1-Propyl-azetidin-3-yl)-phenyl]-4-(2,2,2-trifluoro-1-methyl-ethyl)benzenesulfonamide]	8.24	113	6.19
CCCN1CC(c2ccc(NS(=O)(=O)c3ccc(C(C)C(F)F)cc3)cc2)C1 (centres unmarked) [Example 64, 4-(2,2-Difluoro-1-methyl-ethyl)-N-[4-(1-propyl-azetidin-3-yl)-phenyl]-benzenesulfonamide]	8.68	164	6.46
CCCN1CC[C@@H](c2ccc(NS(=O)(=O)c3ccc(-c4csnn4)cc3)cc2)C1 [Example 65, N-[4-((S)-1-Propyl-pyrrolidin-3-yl)-phenyl]-4-[1,2,3]thiadiazol-4-yl-benzenesulfonamide]	8.17	29	6.71
CCCN1CC[C@@H](c2ccc(NS(=O)(=O)c3ccc(N4CCCC4)cc3)cc2)C1 [Example 67, N-[4-((S)-1-Propyl-pyrrolidin-3-yl)-phenyl]-4-pyrrolidin-1-yl-benzenesulfonamide]	9.46	11	8.41
CCCN1CC[C@@H](c2ccc(NS(=O)(=O)c3ccc(SC(F)(F)F)cc3)cc2)C1 [Example 68, N-[4-((S)-1-Propyl-pyrrolidin-3-yl)-phenyl]-4-trifluoromethylsulfanyl-benzenesulfonamide]	8.52	47	6.85
